Experimental data: the supplement of paper PMC10307832

How the values were obtained:
Test in all cases: relative viability (nuclei count vs DMSO), 5 days (fraction); higher = more cells survive
[1] = compound: COc1cc2c(Oc3ccc4[nH]c(C)cc4c3F)ncnc2cc1OCCCN1CCCC1 [Cediranib] + O=C(CCCCCCC(=O)Nc1ccccc1)NO [Vorinostat] (partner 1 µM)
Summary of the method: (§1)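 Lung cancer cell lines in 1536-well plates got either a single drug or a fixed anchor-drug dose together with five library-drug doses (not always all listed) in √10 steps, by pin tool, on the day after seeding. Nuclei were counted after 5 days, and relative viability is the treated-to-vehicle ratio of nuclei counts. Values are medians of duplicate plates.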

[2] = compound: Nc1ncn([C@H]2C[C@H](O)[C@@H](CO)O2)c(=O)n1 [Decitabine] + Cc1nc(Nc2ncc(C(=O)Nc3c(C)cccc3Cl)s2)cc(N2CCN(CCO)CC2)n1 [Dasatinib] (partner 0.075 µM)
Summary of the method: as §1

[3] = compound: COc1cc2c(Oc3ccc4[nH]c(C)cc4c3F)ncnc2cc1OCCCN1CCCC1 [Cediranib] + NC(=O)Nc1cc(-c2cccc(F)c2)sc1C(=O)N[C@H]1CCCNC1 [AZD7762] (partner 0.2 µM)
Summary of the method: as §1

[4] = compound: O=C(C[C@H]1NCCC[C@@H]1O)Cn1cnc2cc(Br)c(Cl)cc2c1=O (racemic) [Halofuginone] + C[C@@H](Oc1cc(-c2cnn(C3CCNCC3)c2)cnc1N)c1c(Cl)ccc(F)c1Cl [Crizotinib] (partner 1 µM)
Summary of the method: as §1

Cell Line	relative viability ([1]; first compound 0.1265 µM)	relative viability ([1]; first compound 0.4 µM)	relative viability ([1]; first compound 1.265 µM)	relative viability ([1]; first compound 4 µM)	relative viability ([2]; first compound 0.04 µM)	relative viability ([2]; first compound 0.1265 µM)	relative viability ([2]; first compound 0.4 µM)	relative viability ([2]; first compound 1.265 µM)	relative viability ([2]; first compound 4 µM)	relative viability ([3]; first compound 0.1265 µM)	relative viability ([3]; first compound 0.4 µM)	relative viability ([3]; first compound 1.265 µM)	relative viability ([3]; first compound 4 µM)	relative viability ([4]; first compound 0.001 µM)	relative viability ([4]; first compound 0.003162 µM)	relative viability ([4]; first compound 0.01 µM)	relative viability ([4]; first compound 0.03162 µM)	relative viability ([4]; first compound 0.1 µM)	relative viability ([1]; first compound 0.04 µM)	relative viability ([3]; first compound 0.04 µM)
NCI-H1993	0.633	0.727	0.567	0.688	0.542	0.57	0.608	0.484	0.55	0.923	0.819	0.588	0.755	1.05	0.921	0.95	0.89	0.588		
NCI-H661	0.796	0.763	0.773	0.911	0.679	0.629	0.475	0.305	0.347					1.1		0.911	0.921	0.893	0.905	
NCI-H520	0.622	0.581	0.576	0.676	0.263	0.242	0.217	0.239	0.19					0.764	0.808	0.749	0.693	0.316	0.792	
ChaGo-K-1	0.377	0.719	0.757	0.808	0.467	0.549	0.311	0.329	0.346	0.684	0.886	0.9	0.948	1.18	1.2	1.03	1.11	0.975	0.719	0.843
NCI-H2085	0.721	0.746	0.832	0.769	0.25	0.256	0.285	0.279	0.204	0.987	0.921	1.11	0.997	0.994	0.82	0.776	0.831	0.52	0.832	0.966
NCI-H1651	0.591	0.58	0.53	0.555	0.418	0.506	0.398	0.341	0.385	0.527	0.471	0.314	0.524	0.922	0.899	0.88	0.848	0.798	0.518	0.437
SK-MES-1	1.04	0.966	1.05	1.21	0.333	0.234	0.161	0.135	0.158					1.02	1.01	0.863	0.778	0.302	1.17	
COR-L 105	0.847	0.733	0.766	0.91	0.254	0.353	0.262	0.282	0.305					1.01	0.853	0.722	0.718	0.515	0.921	
NCI-H1703											0.135	0.122	0.123	1.04	0.583	0.538	0.592	0.28		0.116
NCI-H1650	0.546	0.599	0.548	0.679	0.328	0.314	0.247	0.26	0.248					1.05	1.05	0.951	0.823	0.59	0.629	
NCI-H2009	0.672	0.715	0.736	0.717	0.264	0.273	0.252	0.204	0.185					1.15	1.09	1.06	0.923	0.668	0.736	
COR-L23	0.428	0.412	0.433	0.458	0.255	0.347	0.29	0.161	0.18					0.822	0.78	0.624	0.62	0.0779	0.52	
NCI-H522	0.472	0.925	0.817	0.811	1.02	0.748	0.607	0.632	0.678	0.643	0.887	0.729	0.744						0.842	0.84
NCI-H1563					0.447	0.462	0.584	0.485	0.499					0.868	0.835	0.891	0.555	0.452		
NCI-H1793	0.679	0.67	0.49	0.797	0.347	0.394	0.382	0.246	0.239	0.492	0.418	0.329	0.394						0.954	0.521
SW 900	0.413	0.438	0.478	0.495	0.35	0.405	0.387	0.292	0.163	0.536	0.594	0.621	0.835						0.425	0.839
NCI-H1792					0.835	0.86	0.861	0.677	0.558	0.922	0.554	0.658	0.838	1.04	0.973	0.985	0.959	1.03		
SK-LU-1	0.777	0.685	0.775	0.773	0.188	0.166	0.173	0.154	0.185					1.25	0.978	0.836	0.927	0.325	0.881	
NCI-H2228	0.763	0.633	0.563	0.529	0.324	0.354	0.135	0.161	0.155					0.45	0.658	0.411	0.218	0.177	0.719	
NCI-H1623					0.464	0.494	0.461	0.467	0.514											
IA-LM		0.895	1.03	1.06										0.845	0.899	0.768	0.384	0.0479	1.12	
EBC-1														0.186	0.202	0.188	0.223	0.2		
NCI-H1299														1.03	1.01	0.959	0.873	0.397		
